The results in this text go back to paper PMC12881674, “Activation of TRPV3 channels in bladder cancer cells stimulates ATP release” (Molecular Pharmacology, 2025).

This assay has as its system parental HEK cells. The assay can be described thus: Ca2+ assays (fluo-4 and fura-2) in parental HEK cells lacking TRPV3. Type of assay: cell-based, human. The note with it: concentrations up to 50 μM. As to the method: All fluorometric Ca^2+ assays were performed in HBS buffer at room temperature. The compounds of the Enamine Diversity Set were diluted in a buffer composed of 150 mM NaCl and 20 mM HEPES and added to the cells at a final concentration of 25 μM (0.5% DMSO). For the primary compound screening and the generation of concentration-response analyses, a robotic liquid handling station (Freedom Evo 150; Tecan) with a built-in custom-made fluorescence plate imager was used. HEKTRPV3 and bladder cancer cell lines were harvested and loaded with 4 μM fluo-4/AM (Invitrogen; Fisher Scientific) in cell culture medium for 30 minutes at 37 °C. […] Fluorescence was excited using a 470-nm light-emitting diode, and emitted light was imaged through a 515-nm–long pass filter with a cooled Zyla 5.5 camera (Andor). Fluorescence was recorded and processed under the control of the μ-Manager 2.0 gamma software (https://micro-manager.org.[28]). After recording baseline fluorescence, compounds were dispensed into the wells via the liquid handling device. […] For further analysis, fluorescence signals were calculated for each well, corrected for background intensities and normalized to the initial signals. […] Fluorescence signals were excited with a fiber-coupled monochromator device (Polychrome V; Till Photonics) at 340, 358, and 380 nm and calibrated as described before.[29] […]

With `COC(=O)C12CN(Cc3ccccc3)CC1(C(=O)OC)CN(Cc1ccccc1)C2` (stereo not shown) [AV3-1], the “off-target effects on parental HEK cells” value is “no detectable off-target effects”.
